From patent US20100029710A1, “COMPOUNDS HAVING BOTH ANGIOTENSIN II RECEPTOR ANTAGONISM AND PPARy ACTIVATING ACTIVITIES” (Pfizer Products Inc., priority 2006, published 2010)

Tests used:
[1] = target: T1, Human recombinant AT1 receptor (Homo sapiens, UniProt P30556); assay: AT1 receptor radioligand binding (flashplate); conditions: 125I Sar1,Ile8-Angiotensin II radioligand
T1 construct: purchased
T1 sequence (P30556 1-359): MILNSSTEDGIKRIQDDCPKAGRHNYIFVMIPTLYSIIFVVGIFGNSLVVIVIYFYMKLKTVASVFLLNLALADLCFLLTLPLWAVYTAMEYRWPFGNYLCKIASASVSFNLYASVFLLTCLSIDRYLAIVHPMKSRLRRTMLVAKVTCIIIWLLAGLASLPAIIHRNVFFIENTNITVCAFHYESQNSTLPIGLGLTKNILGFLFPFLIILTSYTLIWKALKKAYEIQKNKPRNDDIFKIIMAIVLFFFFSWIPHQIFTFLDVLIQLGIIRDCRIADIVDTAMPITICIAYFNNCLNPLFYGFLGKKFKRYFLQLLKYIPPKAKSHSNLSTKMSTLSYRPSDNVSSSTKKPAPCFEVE
Outline: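 Human recombinant AT1 receptor was coated on flashplates and competed against 125I-Sar1,Ile8-angiotensin II at its Kd concentration for 2 h at room temperature. Compounds were tested from […], with nonspecific binding defined by 10 μM angiotensin II. Ki was derived via Cheng-Prusoff.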

[2] = target: T2, human PPARγ LBD bound to Gal4 DBD (Homo sapiens, UniProt P37231); assay: PPARγ transfection luciferase reporter assay in HepG2 cells; format: cell-based; conditions: for Emax: HepG2, 24 h, compared to full agonist response (standard TZD full agonist), read-out: PPARγ % activation; for EC50: HepG2, 24 hours exposure
T2 construct: expressed in transfected cells; host or cells: HepG2
T2 sequence (P37231 238-503 limits assumed): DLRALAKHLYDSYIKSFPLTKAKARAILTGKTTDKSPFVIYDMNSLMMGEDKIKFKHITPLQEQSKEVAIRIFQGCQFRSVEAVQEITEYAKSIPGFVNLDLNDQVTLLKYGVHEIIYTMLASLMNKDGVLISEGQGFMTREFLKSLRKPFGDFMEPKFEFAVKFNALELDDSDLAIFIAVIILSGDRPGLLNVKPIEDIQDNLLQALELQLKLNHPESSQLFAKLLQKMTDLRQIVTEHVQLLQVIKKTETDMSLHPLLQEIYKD
Outline: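 HepG2 cells transiently co-transfected with Gal4 DBD–PPARγ LBD, luciferase reporter and β-galactosidase, then exposed 24 h to compound (0.1 nM–100 μM). Luciferase/β-gal ratio gives activation. EC50 is relative to each compound's own maximum; efficacy is % of a reference TZD full agonist.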

| IC50 [1] | Emax [2] | EC50 [2] | SMILES |
| --- | --- | --- | --- |
| 0.0017 µM | 30% | 0.415 µM | CCCc1nc2c(C)cc(CCC(C)(O)CC)nc2n1[C@H]1CCc2cc(-c3ccccc3-c3nnn[nH]3)ccc21 (stereo partly drawn) [Example 50, 1-(3-((1S)-5-(2-(1H-tetrazol-5-yl)phenyl)-2,3-dihydro-1H-inden-1-yl)-7-methyl-2-propyl-3H-imidazo[4,5-b]pyridin-5-yl)-3-methylpentan-3-ol] |
| 0.0021 µM | 36% | 0.13 µM | CCCc1nc2c(C)cc(CCC(C)(O)c3ccccc3)nc2n1[C@H]1CCc2cc(-c3ccccc3-c3nnn[nH]3)ccc21 (stereo partly drawn) [Example 51, 4-(3-((1S)-5-(2-(1H-tetrazol-5-yl)phenyl)-2,3-dihydro-1H-inden-1-yl)-7-methyl-2-propyl-3H-imidazo[4,5-b]pyridin-5-yl)-2-phenylbutan-2-ol] |
| 0.0013 µM | 36% | 0.29 µM | CCc1nc2c(C)cc(CCC3(O)CCCCC3)nc2n1[C@H]1CCc2cc(-c3ccccc3-c3nnn[nH]3)ccc21 [Example 52, 1-(2-(3-((1S)-5-(2-(1H-tetrazol-5-yl)phenyl)-2,3-dihydro-1H-inden-1-yl)-2-ethyl-7-methyl-3H-imidazo[4,5-b]pyridin-5-yl)ethyl)cyclohexanol] |
| 0.0014 µM | 30% | 0.215 µM | CCc1nc2c(C)cc(CCC(C)(C)O)nc2n1[C@H]1CCc2cc(-c3ccccc3-c3nnn[nH]3)ccc21 [Example 53, 4-(3-((1S)-5-(2-(1H-tetrazol-5-yl)phenyl)-2,3-dihydro-1H-inden-1-yl)-2-ethyl-7-methyl-3H-imidazo[4,5-b]pyridin-5-yl)-2-methylbutan-2-ol] |
| 0.001 µM | 26% | 0.535 µM | CCc1nc2c(C)cc(CCC3(O)CCOC3)nc2n1[C@H]1CCc2cc(-c3ccccc3-c3nnn[nH]3)ccc21 (stereo partly drawn) [Example 54, 3-(2-(3-((1S)-5-(2-(1H-tetrazol-5-yl)phenyl)-2,3-dihydro-1H-inden-1-yl)-2-ethyl-7-methyl-3H-imidazo[4,5-b]pyridin-5-yl)ethyl)-tetrahydrofuran-3-ol] |
| 0.0024 µM | 38% | 0.15 µM | CCc1nc2c(C)cc(CC[C@@](C)(O)C(C)C)nc2n1[C@H]1CCc2cc(-c3ccccc3-c3nnn[nH]3)ccc21 [Example 55, (R)-1-(3-((1S)-5-(2-(1H-tetrazol-5-yl)phenyl)-2,3-dihydro-1H-inden-1-yl)-2-ethyl-7-methyl-3H-imidazo[4,5-b]pyridin-5-yl)-3,4-dimethylpentan-3-ol] |
| 0.0025 µM | 31% | 0.11 µM | CCc1nc2c(C)cc(CCC(O)(CC)CC)nc2n1[C@H]1CCc2cc(-c3ccccc3-c3nnn[nH]3)ccc21 [Example 56, 1-(3-((1S)-5-(2-(1H-tetrazol-5-yl)phenyl)-2,3-dihydro-1H-inden-1-yl)-2-ethyl-7-methyl-3H-imidazo[4,5-b]pyridin-5-yl)-3-ethylpentane-3-ol] |
| 0.0025 µM | 28% | 0.285 µM | CCc1nc2c(C)cc(CC[C@@H](O)C(C)C)nc2n1[C@H]1CCc2cc(-c3ccccc3-c3nnn[nH]3)ccc21 [Example 57, (R)-1-(3-((1S)-5-(2-(1H-tetrazol-5-yl)phenyl)-2,3-dihydro-1H-inden-1-yl)-2-ethyl-7-methyl-3H-imidazo[4,5-b]pyridin-5-yl)-4-methyl pentan-3-ol] |
| 0.0038 µM | 31% | 0.2 µM | CCc1nc2c(C)cc(CCC3CCCCC3)nc2n1[C@H]1CCc2cc(-c3ccccc3-c3nnn[nH]3)ccc21 [Example 58, 3-((1S)-5-(2-(1H-tetrazol-5-yl)phenyl)-2,3-dihydro-1H-inden-1-yl)-5-(2-cyclohexylethyl)-2-ethyl-7-methyl-3H-imidazo[4,5-b]pyridine] |
| 0.0029 µM | 30% | 0.215 µM | CCc1nc2c(C)cc(CCC3CC3)nc2n1[C@H]1CCc2cc(-c3ccccc3-c3nnn[nH]3)ccc21 [Example 59, 3-((1S)-5-(2-(1H-tetrazol-5-yl)phenyl)-2,3-dihydro-1H-inden-1-yl)-5-(2-cyclopropylethyl)-2-ethyl-7-methyl-3H-imidazo[4,5-b]pyridine] |
| 0.022 µM | 21% | 0.525 µM | CCc1nc2c(C)cc(C(=O)CC(C)C)nc2n1[C@H]1CCc2cc(-c3ccccc3-c3nnn[nH]3)ccc21 [Example 60, 1-(3-((1S)-5-(2-(1H-tetrazol-5-yl)phenyl)-2,3-dihydro-1H-inden-1-yl)-2-ethyl-7-methyl-3H-imidazo[4,5-b]pyridin-5-yl)-3-methylbutan-1-one] |
| 0.005 µM | 21% | 0.41 µM | CCc1nc2c(C)cc(C(C)(O)C(C)C)nc2n1[C@H]1CCc2cc(-c3ccccc3-c3nnn[nH]3)ccc21 (stereo partly drawn) [Example 61, 2-(3-((1S)-5-(2-(1H-tetrazol-5-yl)phenyl)-2,3-dihydro-1H-inden-1-yl)-2-ethyl-7-methyl-3H-imidazo[4,5-b]pyridin-5-yl)-3-methylbutan-2-ol] |
| 0.0014 µM | 50% | 0.07 µM | CCc1nnc(Cc2cc(C)c3nc(CC)n([C@H]4CCc5cc(-c6ccccc6-c6nnn[nH]6)ccc54)c3n2)o1 [Example 62, 3-((1S)-5-(2-(1H-tetrazol-5-yl)phenyl)-2,3-dihydro-1H-inden-1-yl)-2-ethyl-5-((5-ethyl-1,3,4-oxadiazol-2-yl)methyl)-7-methyl-3H-imidazo[4,5-b]pyridine] |
| 0.0024 µM | 27% | 0.295 µM | CCc1nc2c(C)cc(CC3CCCCC3=O)nc2n1[C@H]1CCc2cc(-c3ccccc3-c3nnn[nH]3)ccc21 (stereo partly drawn) [Example 63, 2-((3-((1S)-5-(2-(1H-tetrazol-5-yl)phenyl)-2,3-dihydro-1H-inden-1-yl)-2-ethyl-7-methyl-3H-imidazo[4,5-b]pyridin-5-yl)methyl)cyclohexanone] |
| 0.006 µM | 22% | 0.435 µM | CCc1nc2c(C)cc(Cn3nccn3)nc2n1[C@H]1CCc2cc(-c3ccccc3-c3nnn[nH]3)ccc21 [Example 66, 3-((1S)-5-(2-(1H-tetrazol-5-yl)phenyl)-2,3-dihydro-1H-inden-1-yl)-5-((2H-1,2,3-triazol-2-yl)methyl)-2-ethyl-7-methyl-3H-imidazo[4,5-b]pyridine] |
| 0.0051 µM | 23% | 0.11 µM | CCc1nc2c(C)cc(Cn3nc(C)cc3C)nc2n1[C@H]1CCc2cc(-c3ccccc3-c3nnn[nH]3)ccc21 [Example 67, 3-((1S)-5-(2-(1H-tetrazol-5-yl)phenyl)-2,3-dihydro-1H-inden-1-yl)-5-((3,5-dimethyl-1H-pyrazol-1-yl)methyl)-2-ethyl-7-methyl-3H-imidazo[4,5-b]pyridine] |
| 0.0065 µM | 34% | 0.045 µM | CCc1nc2c(C)cc(CCC(C)(O)C(C)(C)C)nc2n1[C@H]1CCc2cc(-c3ccccc3-c3nnn[nH]3)ccc21 (stereo partly drawn) [Example 68, 1-(3-((1S)-5-(2-(1H-tetrazol-5-yl)phenyl)-2,3-dihydro-1H-inden-1-yl)-2-ethyl-7-methyl-3H-imidazo[4,5-b]pyridin-5-yl)-3,4,4-trimethylpentan-3-ol] |
| 0.004 µM | 36% | 0.03 µM | CCc1nc2c(C)cc(CCC(C)(O)CC(C)C)nc2n1[C@H]1CCc2cc(-c3ccccc3-c3nnn[nH]3)ccc21 (stereo partly drawn) [Example 69, 1-(3-((1S)-5-(2-(1H-tetrazol-5-yl)phenyl)-2,3-dihydro-1H-inden-1-yl)-2-ethyl-7-methyl-3H-imidazo[4,5-b]pyridin-5-yl)-3,5-dimethylhexan-3-ol] |
